Laboratory results as given in patent US10071975B2, “Macrocyclic amidinourea derivatives, methods of preparation and uses thereof as chitinase inhibitors” (CYGNET BIOSCIENCES B.V., priority 2013, dated 2018).
In brackets after ≈: the same amount, converted by molar mass. Read-outs that look alike come from different tables or passages of the source.

Assays:
C. tropicalis = test: Antimicrobial susceptibility testing (microdilution MIC90), C. tropicalis strains; assay type: cell-based; settings: Candida tropicalis; C. tropicalis (11 strains tested); 24 h
Method: (§1) Sterile plastic microtitration plates containing flat-bottomed wells were used. The plates contained serial dilution of the antifungal agents with a volume of assay medium of 100 μL/well. Two drug-free medium wells were used as sterility and growth controls. The trays were inoculated with 100 μL/well of the final inoculum, with the exception of sterility control wells. […] The microtitration plates were incubated at 37° C. for 24 h. The minimal inhibitory concentrations (MICs) were determined at 24 h both visually and spectrophotometrically measuring the turbidity at 595 nm with a Varian model 1475 spectrophotometer. Results of biological tests are shown in Table 2, biological data are reported as MIC90 that is the minimum concentration required to inhibit the growth of at least the 90% of the strains tested for each species.

C. parapsilosis = test: Antimicrobial susceptibility testing (microdilution MIC90), C. parapsilosis strains; assay type: cell-based, Candida parapsilosis; settings: Lodderomyces parapsilosis; C. parapsilosis (24 strains tested); 24 h
Method: as §1

C. krusei = test: Antimicrobial susceptibility testing (microdilution MIC90), C. krusei strains; assay type: cell-based, Candida krusei; settings: Pichia kudriavzevii, 24 h
Method: as §1

[1] = test system: C. glabrata fluconazole resistant strains; test: microbe, parasite or virus in culture; assay type: cell-based, Candida glabrata; settings: Nakaseomyces glabratus, 24 h
C. glabrata = test: Antimicrobial susceptibility testing (microdilution MIC90), C. glabrata strains; assay type: cell-based, Candida glabrata; settings: Nakaseomyces glabratus; C. glabrata (26 strains tested); 24 h
Method: as §1

C. albicans = test: Antimicrobial susceptibility testing (microdilution MIC90), C. albicans strains; assay type: cell-based; settings: Candida albicans; C. albicans (22 strains tested); 24 h, visually and spectrophotometrically
Method: as §1

[2] = test system: C. albicans fluconazole resistant strains; test: microbe, parasite or virus in culture; assay type: cell-based; settings: Candida albicans, 24 h
C. kefyr = test: Antimicrobial susceptibility testing (microdilution MIC90), C. kefyr strains; assay type: cell-based, Candida kefyr; settings: Kluyveromyces marxianus; C. kefyr (10 strains tested); 24 h
Method: as §1

C. guilliermondii = test: Antimicrobial susceptibility testing (microdilution MIC90), C. guilliermondii strains; assay type: cell-based, Candida guilliermondii; settings: Meyerozyma guilliermondii; C. guilliermondii (10 strains tested); 24 h
Method: as §1

[3] = target: chitinase enzyme extracted from Trichoderma viride; test: Chitinase inhibition assay (NP-GlcNAc substrate); assay type: biochemical
Method: Chitinase inhibition assays were conducted against an example of the GH18 family of chitinases, i.e the chitinase enzyme extracted from Trichoderma viride. This enzyme has an high degree of identity compared to chitinase 4 of Candida albicans, and is commercially available from Sigma-Aldrich (catalogue ID: C8241).
The substrate used was the NP-GlcNAc (Sigma-Aldrich, catalogue ID: N9376) dissolved in MES 50 mM at pH6.0; the final concentration was 250 μM. The enzyme was resuspended at 0.11 mg/ml in MES 50 mM at pH 6.0, with a final concentration for the assay of 73 nM diluting with MES 50 mM and BSA 20 μg/ml at pH 6.0. A stock solution of the inhibitors was prepared at 50 mM in DMSO 100%.
The mixture with the inhibitor at various concentrations and the enzyme was prepared directly into the reading plate and left to incubate at room temperature for 20 minutes or three hours. At the end of the incubation times, the substrate was added and the reading was conducted by recording the values up to a maximum time of 10 minutes. The substrate concentration was measured by reading UV absorption at 300 nm (εM^300: 11100), while, the product of hydrolysis were measured at 400 nm (ΔεM^400: 2120). Both IC50 and Ki can be calculated.

[4] = strain DSY284, ERG11 Mutation, mean of three measurements
[5] = strain DSY289, ERG11 Mutation (2)
[6] = strain DSY291, ERG11 Mutation (2)
[7] = strain DSY292, ERG11 Mutation (3)
[8] = strain DSY751, ↑MDR1, ERG11 Mutation
[9] = Enz.-inhib. incubation time 20 min
[10] = Enz.-inhib. incubation time 3 h
[11] = C. krusei (13 strains tested), read-out: MIC90

SMILES	MIC90 (C. tropicalis) [µg/mL]	MIC90 (C. parapsilosis) [µg/mL]	MIC90 (C. glabrata) [µg/mL]	MIC90 (C. albicans) [µg/mL]	MIC90 (C. kefyr) [µg/mL]	MIC90 (C. guilliermondii) [µg/mL]	IC50 [3, 9] [µM]	Ki [3, 9] [µM]	IC50 [3, 10] [µM]	Ki [3, 10] [µM]	MIC90 (C. krusei; [11]) [µg/mL]	other results
OC(Cn1cncn1)(Cn1cncn1)c1ccc(F)cc1F [F, Fluconazole, reference compound]	2 (≈ 6.53 µM)	0.5 (≈ 1.63 µM)	16 (≈ 52.2 µM)	2 (≈ 6.53 µM)	1 (≈ 3.27 µM)	4 (≈ 13.1 µM)	–	–	–	–	–	MIC90 (C. krusei): 256 µg/mL (≈ 836 µM); MIC ([1]; strain DSY530, ↑CDR1): 64 µg/mL (≈ 209 µM); MIC ([1]; strain DSY754, ↑CDR1): 64 µg/mL (≈ 209 µM); MIC ([1]; strain DSY756, ↑CDR1-CDR2-SNQ2): 128 µg/mL (≈ 418 µM); MIC ([1]; strain DSY2254, ↑CDR1-CDR2): 128 µg/mL (≈ 418 µM); MIC ([1]; strain DSY2271, ↑CDR2): 64 µg/mL (≈ 209 µM); MIC [2, 4]: 256 µg/mL (≈ 836 µM); MIC [2, 5]: 256 µg/mL (≈ 836 µM); MIC [2, 6]: 2 µg/mL (≈ 6.53 µM); MIC [2, 7]: 64 µg/mL (≈ 209 µM); MIC ([2]; strain DSY296, ERG11 Mutation): 128 µg/mL (≈ 418 µM); MIC ([2]; strain DSY348, ERG11 Mutation): 32 µg/mL (≈ 104 µM); MIC ([2]; strain DSY732, ↑CDR1-CDR2): 16 µg/mL (≈ 52.2 µM); MIC ([2]; strain DSY735, ↑CDR1-CDR2): 64 µg/mL (≈ 209 µM); MIC ([2]; strain DSY750, ↑MDR1): 2 µg/mL (≈ 6.53 µM); MIC [2, 8]: 256 µg/mL (≈ 836 µM); MIC ([2]; strain DSY775, ERG11 Mutation): 128 µg/mL (≈ 418 µM); MIC ([2]; strain DSY2323, ↑CDR2-MDR1): 32 µg/mL (≈ 104 µM)
C#CCNC(=N)NCCCCCCN1CCCCCCCCNC(=N)NC1=O [Compound 39, 1-[6-(4-imino-2-oxo-1,3,5-triazacyclotridec-1-yl)hexyl]-3-prop-2-ynylguanidine]	–	–	–	–	–	–	170	55	97	31.3	–	–
C/C=C/CNC(=N)NCCCCCCCCN1CCCCOc2ccccc2CNC(=N)NC1=O [Example 16, 1-[(E)-but-2-enyl]-3-[8-(4-imino-6-oxo-12-oxa-3,5,7-triazabicyclo[11.4.0]heptadeca-1(13),14,16-trien-7-yl)octyl]guanidine]	8 (≈ 16.5 µM)	8 (≈ 16.5 µM)	64 (≈ 132 µM)	16 (≈ 32.9 µM)	4 (≈ 8.24 µM)	16 (≈ 32.9 µM)	–	–	–	–	32 (≈ 65.9 µM)	MIC ([1]; strain DSY530, ↑CDR1): 64 µg/mL (≈ 132 µM); MIC ([1]; strain DSY754, ↑CDR1): 64 µg/mL (≈ 132 µM); MIC ([1]; strain DSY756, ↑CDR1-CDR2-SNQ2): 64 µg/mL (≈ 132 µM); MIC ([1]; strain DSY2254, ↑CDR1-CDR2): 64 µg/mL (≈ 132 µM); MIC ([1]; strain DSY2271, ↑CDR2): 64 µg/mL (≈ 132 µM); MIC [2, 4]: 16 µg/mL (≈ 32.9 µM); MIC [2, 5]: 8 µg/mL (≈ 16.5 µM); MIC [2, 6]: 8 µg/mL (≈ 16.5 µM); MIC [2, 7]: 16 µg/mL (≈ 32.9 µM); MIC ([2]; strain DSY296, ERG11 Mutation): 16 µg/mL (≈ 32.9 µM); MIC ([2]; strain DSY348, ERG11 Mutation): 8 µg/mL (≈ 16.5 µM); MIC ([2]; strain DSY732, ↑CDR1-CDR2): 8 µg/mL (≈ 16.5 µM); MIC ([2]; strain DSY735, ↑CDR1-CDR2): 8 µg/mL (≈ 16.5 µM); MIC ([2]; strain DSY750, ↑MDR1): 16 µg/mL (≈ 32.9 µM); MIC [2, 8]: 16 µg/mL (≈ 32.9 µM); MIC ([2]; strain DSY775, ERG11 Mutation): 16 µg/mL (≈ 32.9 µM); MIC ([2]; strain DSY2323, ↑CDR2-MDR1): 8 µg/mL (≈ 16.5 µM)
C/C=C/CNC(=N)NCCCCCCCCN1CCCc2ccccc2COc2ccccc2CNC(=N)NC1=O [Example 22, 1-[(2E)-but-2-en-1-yl]-3-(8-{16-imino-14-oxo-2-oxa-13,15,17-triazatricyclo[17.4.0.0^4,9]tricosa-1(19),4(9),5,7,20,22-hexaen-13-yl}octyl)guanidine]	128 (≈ 228 µM)	64 (≈ 114 µM)	128 (≈ 228 µM)	64 (≈ 114 µM)	128 (≈ 228 µM)	64 (≈ 114 µM)	–	–	–	–	256 (≈ 456 µM)	–
C/C=C/CNC(=N)NCCCCCCCCN1CCCCCCOC(=O)CCNC(=N)NC1=O [Example 20, 1-[(E)-but-2-enyl]-3-[8-(6-imino-2,8-dioxo-1-oxa-5,7,9-triazacyclopentadec-9-yl)octyl]guanidine]	16 (≈ 33.4 µM)	8 (≈ 16.7 µM)	32 (≈ 66.7 µM)	16 (≈ 33.4 µM)	16 (≈ 33.4 µM)	8 (≈ 16.7 µM)	–	–	–	–	32 (≈ 66.7 µM)	–
C/C=C/CNC(=N)NCCCCCCCCN1CCCCCCCCNC(=N)NC1=O [Compound 35, 1-[(E)-but-2-enyl]-3-[8-(4-imino-2-oxo-1,3,5-triazacyclotridec-1-yl)octyl]guanidine]	–	–	–	–	–	–	185	59.6	157	50.8	–	–
N=C(NCCCCCCCCN1CCCCCCCCNC(=N)NC1=O)NCC1CC1 [Compound 34, 1-(cyclopropylmethyl)-3-[8-(4-imino-2-oxo-1,3,5-triazacyclotridec-1-yl)octyl]guanidine]	–	–	–	–	–	–	252	81.4	130	42	–	–
